The source of these data is patent US7651695B2, “Medicated stents for the treatment of vascular disease” (Advanced Cardiovascular Systems, Inc., priority 2001, dated 2010).

In assay [1] the test system is Medial smooth muscle cells (SMC) from rat aorta. Kind of assay: Inhibition of SMC proliferation (thymidine incorporation). The note with it: read-out: IC50 (concentration at which 50% of the cells stop proliferating). The assay is classed as cell-based. How it is done:
Medial smooth muscle cells (SMC) were isolated from rat aorta and cultured according to explant methods known to one of ordinary skill in the art. Cells were harvested via trypsinization and subcultivated. Cells were identified as vascular SMC through their characteristic hill-and-valley growth pattern as well as indirect immunofluorescence with monoclonal anti SMC α-actin. Studies were performed with cells at passage 3-4. SMC monlayers were established on 24 well culture dishes, scrape wounded and treated with actinomycin D, mytomycin and docetaxel. The cells were exposed to the drug solution of different concentrations for 2 hours and then washed with buffered saline solution. The proliferation of the cells was quantified by standard technique of thymidine incorporation.
The IC50 (concentration at which 50% of the cells stop proliferating) of actinomycin D was 10^−9M as compared to 5×10^−5M for mitomycin and 10^−6M for docetaxel.
On the technique in general: Dividing cells build labelled thymidine or BrdU into new DNA.

Assay [2] deals with porcine coronary arteries (EEL/IEL area). Kind of assay: Positive remodeling by stents coated with EVAL impregnated with actinomycin D in porcine coronary arteries. The assay is classed as in vivo. The text has this:
“Positive remodeling” is generally defined as the ability of the vessel walls to structurally adapt, by increasing in lumen size, to chronic stimuli. A positively remodeled lumen wall has a greater diameter or size as compared to a lumen wall which has not been subjected to the remodeling effect. Accordingly, the flow of blood through the remodeled site is increased—flow which would have otherwise been reduced because of, for example, the presence of plaque build-up or migration and proliferation of cells. The index of remodeling is defined by the ratio of the area circumscribed by the external elastic lamia (EEL) of the lesion site to the area circumscribed by the EEL of a reference site. As a result of the positive remodeling of the EEL, the internal elastic lamina (IEL), in response, can also increases in area or diameter.
In vivo data is provided illustrated positive remodeling caused by the application of actinomycin D. Stents coated with EVAL impregnated with actinomycin D and a control group of stents coated with EVAL free from actinomycin D were implanted in porcine coronary arteries. The animals were sacrificed at the end of 28 days. […] The index of remodeling was 1.076 (8.54/7.94).
FIGS. 3A and 3B illustrate sample pictures of the histology slides of the coronary vessels from the control group 64 RCA ([…]) and the actinomycin D loaded stent group 68 LAD (Left Anterior Descending), respectively. The stent used was an Advanced Cardiovascular Systems Multi-Link Duet™ (stainless steel). As is illustrated by FIG. 3B, the positive remodeling of IEL 10, caused by the application of actinomycin D, creates a gap between stent struts 12 and IEL 10. Thrombus deposites, illustrated by reference number 14, are formed in the gap over time. The use of a self-expandable stent eliminates the formation of the gap as the stent self-expands in response to the positive remodeling of IEL. Thrombus deposits can be, accordingly, eliminated.

The subject of assay [3] is neointimal formation in the coronary arteries. Kind of assay: Porcine coronary stent injury model, drug delivered with microporous balloon catheter. The assay is classed as in vivo, Domestic swine. The protocol:
Porcine coronary models were used to assess the degree of the inhibition of neointimal formation in the coronary arteries of a porcine stent injury model by Actinomycin D, delivered with a microporous balloon catheter (1×10^6 pores/cm^2 with size ranging from 0.2-0.8 micron).
The preclinical animal testing was performed in accordance with the NIH Guide for Care and Use of Laboratory Animals. Domestic swine were utilized to evaluate effect of the drug on the inhibition of the neointimal formation. Each testing procedure, excluding the angiographic analysis at the follow-up endpoints, was conducted using sterile techniques. During the study procedure, the activated clotting time (ACT) was monitored regularly to ensure appropriate anticoagulation. Base line blood samples were collected for each animal before initiation of the procedure. Quantitative coronary angiographic analysis (QCA) and intravascular ultrasound (IVUS) analysis was used for vessel size assessment.
The vessels at the sites of the delivery were denuded by inflation of the PTCA balloons to 1:1 balloon to artery ratio and moving the balloons back and forth 5 times. Actinomycin D was delivered to the denuded sites at 3.5 atm (3.61 kg/sq. cm) for 2 minutes using the microporous balloon catheters before stent deployment. The average volume of delivery was about 3.3+/−1.2 ml. Following drug delivery, stents were deployed at the delivery site such that final stent to artery ratio was 1.1:1.
QCA and IVUS analyses were used for stent deployment guidance. Pre-stenting IVUS measurements of the lumen size at the targeted vessel sites were performed for determination of the balloon (size) inflation pressure. Quantitative analysis of the stented coronary arteries to compare pre-stenting, post-stenting, follow-up minimal luminal diameters, stent recoil, and balloon/stent to artery ratio were performed. Following stent implantation and final angiogram, all devices were withdrawn and the wounds closed; the animals were allowed to recover from anesthesia as managed by the attending veterinarian or animal care professionals at the research center.
Upon return to the research laboratory at the 28-day endpoint, angiographic assessments were performed. Coronary artery blood flow was assessed and the stented vessels were evaluated to determine minimal lumen diameter. The animals were euthanized following this procedure at the endpoint. Following euthanasia, the hearts were pressure perfusion fixed with formalin and prepared for histological analysis, encompassing light microscopy, and morphometry. Morphometric analysis of the stented arteries included assessment of the position of the stent struts and determination of vessel/lumen areas, percent (%) stenosis, injury scores, intimal and medial areas and intima/media ratios. Percent stenosis is quantitated by the following equation: 100(IEL area−lumen area)/IEL area where IEL is the internal elastic lamia.
The control group of animals received delivery of water instead of the drug. The test group of animals received actinomycin D in two different concentration of 10^−5M and 10^−4M. […] FIGS. 2A and 2B illustrate sample pictures of the histology slides of the coronary vessels from the control and the Dose 1 group, respectively.

[4] abbreviates: rat aortic SMC, scrape wounded, 2 hours drug exposure, thymidine incorporation.
Setting [5] is: average of 24 vessel sections, 28 days.
Setting [6] is: one value per vessel section (ID # in the cell to the left), 28 days.
The mark [7] stands for this setting: Dose 1, 1E−05 M, n = 30, 28-day endpoint.
The mark [8] stands for this setting: Dose 2, 1E−04 M, n = 21, 28-day endpoint.

Where “and” joins values, the source holds several entries; their conditions need not be identical. Equal entries are not always repeated. Where two headings read alike, the source gives them in different places. Starred links: 1 amine or outer side, 2 acyl side, 3 side chain; linkers in the order of their positions; H or OH if unused. Positions of bridges follow the written chain, without caps; N, C: chain ends. Non-standard residues stand in square brackets, D forms with d. Residues, ends and D or L forms follow the SMILES beside them. Chains are numbered I, II in the order given. Actinocin(9to1) = Cc1c2oc3c(C)ccc(C(=O)[*:1])c3nc-2c(C(=O)[*:2])c(N)c1=O; NMeV = CN[C@H](C(=O)O)C(C)C; Sar = CNCC(=O)O

On to `CC(=O)O[C@@]12CO[C@@H]1C[C@H](O)[C@@]1(C)C(=O)[C@H](O)C3=C(C)[C@@H](OC(=O)[C@H](O)[C@@H](NC(=O)OC(C)(C)C)c4ccccc4)C[C@@](O)([C@@H](OC(=O)c4ccccc4)[C@H]21)C3(C)C` [docetaxel], for which, in assay [1] (setting [4]), the IC50 came to 1000 nM.

As to `Cc1c2oc3c(C)ccc(C(=O)N[C@@H]4C(=O)N[C@H](C(C)C)C(=O)N5CCC[C@H]5C(=O)N(C)CC(=O)N(C)[C@@H](C(C)C)C(=O)O[C@@H]4C)c3nc-2c(C(=O)N[C@@H]2C(=O)N[C@H](C(C)C)C(=O)N3CCC[C@H]3C(=O)N(C)CC(=O)N(C)[C@@H](C(C)C)C(=O)O[C@@H]2C)c(N)c1=O` [actinomycin D] (I: T[dV]P[Sar][NMeV] / II: T[dV]P[Sar][NMeV]; ester I:1-I:C, II:1-II:C; linker I:N-II:N via Actinocin(9to1)), the IC50 in assay [1] (Rattus norvegicus, 2 h) is 1 nM. The “EEL area compared with control vessels” value in assay [2] (28 days, actinomycin D-loaded vessels vs control vessels) is reported as “statistically significantly greater”. Further, in assay [2] (ActD vs EVAL), the “AVG % EEL growth” value is 7.486% and the “AVG % IEL growth” value is recorded as 13.18%. The index of remodeling in assay [2] (EEL area ratio 8.54/7.94, actinomycin D-loaded vs EVAL control) turned out to be 1.076. In addition, in assay [2] (setting [5]), the “EEL Area, AVG” value is reported as 8.5425 mm^2 and the “IEL Area, AVG” value amounted to 7.4727 mm2. For the same molecule, in assay [2] (setting [6]), the “EEL Area, individual vessel section” value is 7.4498 mm^2 and 8.2509 mm^2 and 7.7342 mm^2 and 7.9207 mm^2 and 6.9926 mm^2 and 8.3883 mm^2 and 7.8546 mm^2 and 9.2545 mm^2 and 9.2515 mm^2 and 8.7854 mm^2 and 9.5164 mm^2 and 9.1504 mm^2 and 9.6679 mm^2 and 9.1237 mm^2 and 9.9849 mm^2 and 9.4765 mm^2 and 7.4424 mm^2 and 9.1462 mm^2 and 8.9504 mm^2 and 8.9117 mm^2 and 8.7533 mm^2 and 7.3249 mm^2 and 7.1061 mm^2 and 8.5830 mm^2; the “IEL Area, individual vessel section” value is 6.3785 mm2 and 7.5206 mm2 and 6.9992 mm2 and 6.9632 mm2 and 6.0418 mm2 and 7.4794 mm2 and 6.2324 mm2 and 8.3785 mm2 and 8.5819 mm2 and 8.0964 mm2 and 8.6879 mm2 and 8.0914 mm2 and 8.7181 mm2 and 8.0273 mm2 and 8.5222 mm2 and 8.3796 mm2 and 6.4219 mm2 and 7.7757 mm2 and 7.5392 mm2 and 7.6573 mm2 and 6.9749 mm2 and 6.2815 mm2 and 5.9760 mm2 and 7.6195 mm2. For the same molecule, the “Percent Diameter Stenosis, angiographic data (QCA)” value in assay [3] (Dose 1, 1E−05 M, n = 10, 28-day endpoint) was 36.8 +/− 9.7%. In assay [3] (setting [7]), the “Percent Stenosis (IEL area-lumen area)/IEL area, histomorphometric data” value is 51.8 +/− 13.8% and the “Residual Lumen (Lumen area)/IEL area, histomorphometric data” value is recorded as 0.49 +/− 0.14. Moreover, the “Percent Diameter Stenosis, angiographic data (QCA)” value in assay [3] (Dose 2, 1E−04 M, n = 7, 28-day endpoint) is given as 32.3+/−11.7%. Besides, in assay [3] (setting [8]), the “Percent Stenosis (IEL area-lumen area)/IEL area, histomorphometric data” value is recorded as 54.1 +/− 11.7% and the “Residual Lumen (Lumen area)/IEL area, histomorphometric data” value is on record as 0.46 +/− 0.08.

Consider `CO[C@@]12[C@H](COC(N)=O)C3=C(C(=O)C(C)=C(N)C3=O)N1C[C@@H]1N[C@@H]12` [mitomycin], for which, in assay [1] (setting [4]), the IC50 is 50000 nM.
